# Measured values reported in patent US4992470A, “Method of enhancing immune response of mammals” (Iowa State University Research Foundation, Inc., priority 1990, dated 1991).
# Tests used:
# [1] = Stability of HMB (and KIC) in the rumen: incubation in diluted rumen fluid; format: in vitro ADME, steer
# Experimental: Rumen fluid was collected from a fistulated steer. After filtration and dilution (1:4) with an artificial saliva, 25ml of the solution was added to 50ml plastic tubes. Each tube was fitted with a one-way valve to allow gases to escape while not allowing air into the tube. Each tube was then gassed with C02 and incubated at 39° C. After 30 min a solution of KIC or HMB was added to the tube in concentrations to simulate what would be present in the rumen of an animal consuming .05% of the diet as KIC or HMB. It was estimated that a 50uM concentration would be attained in this case. At timed intervals 50ul samples of this rumen fluid were taken and analyzed for KIC and HMB.
# lymphocytes = experiment: In vitro effects of leucine or leucine metabolites on PHA-stimulated lymphocyte blastogenesis (3H-thymidine incorporation); format: cell-based, bovine; conditions: for activation at 1000 µM: Bos taurus, Lymphocyte, 72 h, final concentration 1 mM, PHA stimulated, read-out: % Change from No Additive, in vitro lymphocyte blastogenesis (Mean Percent Change, SEM)
# Experimental: Lymphocyte Blastogenesis Determinations. Blood collections, lymphocyte isolation and blastogenesis assays were performed on isolated bovine cells by using a 3-d culture procedure as described previously in Kuhlman, et al. (1988), J. Nutr., 118:1564-1569.
# Isolated lymphocytes were exposed to 1 and 10 mM Leu and KIC and the metabolites isovalarate, β-hydroxy-β-methyl butyrate (HMB), β-hydroxy-β-methyl glutarate, butyrate, acetate, acetone, acetoacetate, and β-hydroxy butyrate (BOHB). The cells were then stimulated with the mitogen phytohemagglutinin, and incorporation of ^3 H-thymidine into the DNA of the dividing lymphocytes was measured.
# Leucine and Leucine Metabolites. Most of the compounds listed in Table B were purchased from Sigma Chemical Company, St. Louis, MO. KIC was purchased from SOBAC (Paris, France), HMB was synthesized as described in Example 1, and the calcium salt of HMB was purified by crystallization in 95% ethanol. The calcium salt was converted to a sodium salt form and used in subsequent assays. The pH of all compounds was adjusted to approximately 7.3. Compounds were passed through a 0.2-um filter assembly to assure sterility.
# isolated lymphocytes = experiment: HMB effects on lymphocyte function in lambs (ex vivo mitogen-stimulated blastogenesis after feeding)
# Experimental: Animals and Experimental Design. Three sets of twin lambs were housed individually in fiberglass pens. Animals were randomly assigned to control or HMB diets, using a standard basal diet with and without 0.05% HMB.
# Blood Sampling and Lymphocyte Preparation. In the first experiment, animals were bled for lymphocyte blastogenesis assays and T-cell subset analysis 38, 45, and 52 days after dietary treatments began. Blood (50 ml) was collected, aseptically, via jugular venepuncture into 10 ml acid-citrate-dextrose anticoagulant (44 g trisodium citrate, 16 g citric acid and 50 g dextrose per 1 of triple-distilled water). Blood was centrifuged, the buffy coat removed, and 1 volume of buffy coat was diluted with 0.5 volume of plasma which was added to 2 volumes of Sepracell-MN (Sepratech Corporation, Oklahoma City, Okla.). After further centrifugation at 1500 x g for 25 min, the mononuclear layer was removed and washed twice with Hanks' balanced salt solution (HBSS; Gibco, Grand Island, N.Y.) by centrifuging at 150 x g for 15 min. The remaining white blood cells were resuspended in HBSS, and the total number of white blood cells was determined by using an automated cell counter (Coulter Electronics, Hialeah, Fla.). The concentration of the cells was adjusted to 1×20^6 " cells/ml with HBSS.
# Lymphocyte Blastogenesis Determinations. Blastogenesis assays were performed on isolated lymphocytes by using a 3-d culture procedure as described previously. Briefly, isolated lymphocytes were cultured in microtiter plates with 2×10^5 " cells in 0.15 ml of culture medium/well. Culture medium consisted of RPMI media-1640 (Gibco, Grand Island, N.Y.) containing 15% heat-inactivated fetal bovine serum and 1% antibiotic-antimycotic solution (Gibco, Grand Island, N.Y.). Unstimulated and mitogen-stimulated cultures were assayed in triplicate. Mitogens used were phytohemagglutinin-P (PHA), concanavalin A (ConA) and pokeweed mitogen (PWM). PHA was purchased from Difco Laboratories, Detroit, MI; ConA from Miles Laboratories, Elkhart, IN; and PWM from Gibco, New York, N.Y. Microtiter plates were incubated at 37° C. in a humidified 5% CO2 atmosphere. After 48 h, 0.25 uCi of ^3 H-thymidine (New England Nuclear, Boston, Mass.) was added to each well. Eighteen hours later, the cultures were harvested onto glass-fiber filters with an automated sample harvester (Flow Laboratories, Rockville, Mo.), filters were placed in 10 ml CytoScint scintillation solution (ICN Biomedicals, Irvine, CA), and radioactivity was counted in a liquid scintillation counter. This procedure is similar to that described by Kuhlman, et al., J. Nutr., 118:1564-1569.
# Mycoplasma hyopneumoniae = experiment: Pigs infected with Mycoplasma: lung lesions, lung fluorescent antibodies, antibody titers; format: in vivo
# Description: (§1) Twelve specific pathogen free (SPF) pigs 4-5 weeks of age were distributed into two groups, each being blocked by gender and litter. All pigs were fed approximately 4% of their body weight of a commercially purchased starter ration. Pigs were penned individually and allowed free access to water.
# (§2) Diets were supplemented with one of two dietary treatments: Control (limestone)(n=6) and HMB (n=6). Dietary treatments were fed at 0.05% of the body weight. HMB was synthesized by the method of Example 1. One week later, pigs were injected with 5 ml/30 kg body weight of a 20% suspension of sheep red blood cells (SRBC) subcutaneously.
# (§3) Fourteen days post dietary treatments, all pigs were challenged via intratracheal inoculation with 5 ml of a ground lung suspension. The suspension was derived from pig pneumonic tissue obtained from a pig experimentally inoculated with Mycoplasma hyopneumoniae. Blood samples were collected once a week for the evaluation of antibodies produced in response to the SRBC and Mycoplasma hyopneumoniae antigenic stimuli. An agglutination assay was used to determine antibody titers produced against SRBC. Titers to Mycoplasma hyopneumoniae were determined using a serum complement fixation assay. At necropsy, the extent of macroscopic pneumonia lesions was recorded and samples from all pigs were submitted for histopathology to assay microscopic lesions. Lung and bronchi samples were cultured and evaluated for the presence of Mycoplasma species (i.e., M. hyorhinis, M. hyosynoviae, and M. hyopneumoniae) and other easily isolated bacteria (i.e., bordetella, pasteurella, and hemophilus).
# [2] = test system: Bordetella broncheseptica; experiment: Pigs: nasal degeneration scores; format: in vivo; conditions: HMB-fed pigs
# Description: as §1, §2
# (§4) The iliac lymph nodes, liver, spleen, and gastrocnemius muscle were removed from the carcass and weighed. The nasal cavity was examined for evidence of Bordetella broncheseptica infection that will result in nasal turbinate degeneration. Nasal degeneration was scored as to severity with 0 indicating no lesions and the highest score, 3, corresponding to […] degeneration.
# [3] = test system: sheep red blood cells (SRBC); experiment: Pigs: antibody titers against sheep red blood cells (agglutination assay); format: in vivo; conditions: HMB-fed pigs; control 11.6; * p < .05
# Description: as §1, §2
# as §3, with “Blood samples were collected once a week for the evaluation of antibodies produced in response to the SRBC and Mycoplasma hyopneumoniae antigenic stimuli. An agglutination assay was used to determine antibody titers produced against SRBC.” left out
# [4] = Pigs: organ weights at necropsy; format: in vivo; conditions: HMB-fed pigs
# Description: as §1, §2, §4
# [5] = test system: Mycoplasma species and other easily isolated bacteria; experiment: Pigs: bacteria cultured from bronchi; format: in vivo; conditions: HMB-fed pigs
# Description: as §1, §2
# as §3, with “Blood samples were collected once a week for the evaluation of antibodies produced in response to the SRBC and Mycoplasma hyopneumoniae antigenic stimuli. An agglutination assay was used to determine antibody titers produced against SRBC.” left out
# T lymphocytes [6] = experiment: Activation of immune function of T lymphocytes, HMB compared with KIC; set-up: species or system mammals
# [7] = Stability of HMB (and KIC) in the rumen: incubation in diluted rumen fluid; format: in vitro ADME, steer; conditions: as far as is known; general statement, oral administration to ruminants
# [8] = rat feeding studies; cited from earlier work
# [9] = cited from earlier work
# T lymphocytes [10] = conditions: U.S. Pat. No. 4,835,185; cited from earlier work
# [11] = U.S. Pat. No. 4,835,185; cited from earlier work
# [12] = Hygroscopicity of HMB salts; format: physicochemical; conditions: compared with Ca-HMB
# [13] = 0 min after addition, rumen fluid diluted 1:4, 39° C., initial concentration of KIC was estimated
# [14] = 15 min after addition, rumen fluid, 39° C.
# [15] = 30 min after addition, rumen fluid, 39° C.
# [16] = 60 min after addition, rumen fluid, 39° C.
# [17] = 240 min after addition, rumen fluid, 39° C.
# [18] = 480 min after addition, rumen fluid, 39° C.
# [19] = Before Treatment (baseline of HMB group)
structure (smiles),measurement,setting,value
"CC(C)(O)CC(=O)O [HMB, β-hydroxy-β-methyl butyric acid]",Stability in rumen environment (in words),[1],quite stable in a rumen environment
same,KIC / HMB in rumen fluid,[1]; [13],60 µM
same,KIC / HMB in rumen fluid,[1]; [14],76 µM
same,KIC / HMB in rumen fluid,[1]; [15],81 µM
same,KIC / HMB in rumen fluid,[1]; [16],71 µM
same,KIC / HMB in rumen fluid,[1]; [17],74 µM
same,KIC / HMB in rumen fluid,[1]; [18],74 µM
same,activation at 1000 µM,lymphocytes,78%
same,"Decays Per Min of 3H Thymidine Incorporated into Isolated Lymphocytes, PHA Stimulation","isolated lymphocytes; After Treatment, diet with 0.05% HMB, control 15,000","18,000 Decays Per Min"
same,"Decays Per Min of 3H Thymidine Incorporated into Isolated Lymphocytes, PWM Stimulation","isolated lymphocytes; After Treatment, diet with 0.05% HMB, control 18,000","25,000 Decays Per Min"
same,"Decays Per Min of 3H Thymidine Incorporated into Isolated Lymphocytes, ConA Stimulation","isolated lymphocytes; After Treatment, diet with 0.05% HMB, control 19,000","21,000 Decays Per Min"
same,"Decays Per Min of 3H Thymidine Incorporated into Isolated Lymphocytes, ConA Stimulation",isolated lymphocytes; [19],"41,000 Decays Per Min"
same,"Decays Per Min of 3H Thymidine Incorporated into Isolated Lymphocytes, PHA Stimulation",isolated lymphocytes; [19],"23,000 Decays Per Min"
same,"Decays Per Min of 3H Thymidine Incorporated into Isolated Lymphocytes, PWM Stimulation",isolated lymphocytes; [19],"21,000 Decays Per Min"
same,"Change in 3H Thymidine incorporation, PWM Stimulation","isolated lymphocytes; after minus before treatment, change in control -14,000","+4,000 Decays Per Min"
same,"Change in 3H Thymidine incorporation, PHA Stimulation","isolated lymphocytes; after minus before treatment, change in control -22,000","-5,000 Decays Per Min"
same,"Change in 3H Thymidine incorporation, ConA Stimulation","isolated lymphocytes; after minus before treatment, change in control -29,000","-20,000 Decays Per Min"
same,Effect on decline in lymphocyte function (in words),"isolated lymphocytes; lambs, 0.05% HMB diet",tended to effect the decline in lymphocyte function
same,M. hyopneumoniae colonies by fluorescent antibody technique (in words),Mycoplasma hyopneumoniae; HMB-fed pigs,decreased
same,Prevention of Mycoplasmal lung damage (in words),Mycoplasma hyopneumoniae; HMB-fed pigs infected with M. hyopneumoniae,can prevent some of the lung damage associated with a Mycoplasmal lung agent
same,Lung or bronchi evaluations (in words),Mycoplasma hyopneumoniae; HMB-fed pigs vs control,no significant differences were seen in the lung or bronchi evaluations
same,M. hyopneumoniae antibody titers (in words),Mycoplasma hyopneumoniae; HMB-fed pigs vs control,no significant differences
same,Lung fluorescent antibodies to M. hyopneumoniae,"Mycoplasma hyopneumoniae; HMB-fed pigs, control 12.6",10.3
same,% lung showing lesions,"Mycoplasma hyopneumoniae; HMB-fed pigs, control 18.7",13.7%
same,M. hyopneumoniae peak titers,"Mycoplasma hyopneumoniae; HMB-fed pigs, serum complement fixation, control 7.1",6.7
same,Extent of mycoplasmal lung infection (in words),"Mycoplasma hyopneumoniae; vs KIC-fed or control animals, not statistically significant",lesser extent of mycoplasmal lung infection than did KIC-fed or control animals
same,Nasal degeneration due to bordetella infection (in words),[2],significant decrease in nasal degeneration due to bordetella infection
same,Severity of nasal turbinate lesions (in words),[2],less severe lesions of the nasal turbinates
same,Nasal degeneration scores (0 = no lesion),"[2]; highest score 3 = moderate degeneration, control 1.6, * p < .05",0.8
same,Red blood cell titers (dilution) day 10-15,[3],15.5 dilution
same,Size of spleen and iliac lymph node (in words),[4],smaller in HMB-fed animals
same,Iliac lymph node weight,"[4]; control 3.8, * p < .05",3.3 g
same,Spleen weight,[4]; control 101,94 g
same,Bacteria cultured in the bronchi (in words),[5],fewer bacteria cultured in the bronchi
same,"Bronchi, presence of bacteria",[5]; control 1.1,0.8
same,Activation of immune function of T lymphocytes relative to KIC (in words),T lymphocytes [6],markedly more effective for activating the immune function of T lymphocytes
same,Rumen destruction (in words),[7],not subject to significant rumen destruction
"CC(C)CC(=O)C(=O)O [KIC, α-keto-isocaproic acid]",Stability in rumen environment (in words),[1],rapidly destroyed by the rumen bacteria
same,KIC / HMB in rumen fluid,[1]; [13],30 µM
same,KIC / HMB in rumen fluid,[1]; [14],15 µM
same,KIC / HMB in rumen fluid,[1]; [15],4 µM
same,KIC / HMB in rumen fluid,[1]; [16],2 µM
same,KIC / HMB in rumen fluid,[1]; [17],2 µM
same,KIC / HMB in rumen fluid,[1]; [18],1 µM
same,Direct effect on the immune system (in words),lymphocytes,have no effect on he immune system directly
same,Effect on blastogenesis (in words),lymphocytes,had no effects on blastogenesis
same,activation at 1000 µM,lymphocytes,-3 ± 7%
same,Amount of KIC required to replace leucine,[8],two to three times as much KIC as the nutritionally required amount of leucine
same,"Cholesterol in meat, milk and eggs (in words)","[9]; U.S. Pat. Nos. 4,760,090 and 4,760,531","cholesterol reduction in meat, milk and eggs"
same,Milk production (in words),"[9]; lactating domestic animals, U.S. Pat. No. 4,758,593",the quantity of milk produced may be increased
same,Egg production (in words),"[9]; laying chickens, U.S. Pat. No. 4,760,531",can also sometimes be increased
same,Wool production (in words),"[9]; mature sheep, U.S. Pat. No. 4,760,090",the amount of wool produced may also be increased
same,Weight gain and/or feed efficiencies (in words),"[9]; milligram amounts of KIC, U.S. Pat. Nos. 4,760,090 and 4,883,817",some increases in the rates of weight gain and/or feed efficiencies
same,Blastogenesis function (in words),T lymphocytes [10],activating the blastogenesis function of the immune systems
same,Plasma cortisol levels (in words),[11],will usually decrease plasma cortisol levels
"CC(C)C[C@H](N)C(=O)O [Leucine, L-leucine]",Direct effect on the immune system (in words),lymphocytes,have no effect on he immune system directly
same,Effect on blastogenesis (in words),lymphocytes,tended to suppress blastogenesis
same,activation at 1000 µM,lymphocytes,-12 ± 6%
CC(C)(O)CC(=O)O [Na-HMB],Hygroscopicity (in words),[12],more hydroscopic than Ca-HMB
CC(O)(CC(=O)O)CC(=O)O [β-hydroxy-β-methyl glutarate],Effect on blastogenesis (in words),lymphocytes,increased blastogenesis slightly
same,activation at 1000 µM,lymphocytes,28%
"CC(O)CC(=O)O (stereo not drawn) [β-hydroxybutyrate, β-hydroxy butyrate]",Effect on blastogenesis (in words),lymphocytes,increased blastogenesis slightly
same,activation at 1000 µM,lymphocytes,25%
